The results in this text go back to paper PMC8179002, “Inhibitors of thiol-mediated uptake” (Chemical Science, 2020).

The structures appear in SMILES notation.

This assay deals with pseudo-lentivectors that express the D614G mutant of the SARS-CoV-2 spike protein. The format is cell-based.

As to `O=S1(=O)C[C@H](O)[C@H](O)CS1` [compound 16], the IC50 (as a rule, the concentration that inhibits the measured activity by half) (read-out: IC50, inhibition of pseudo-lentivector entry) is ~50 µM.

Turning to `CCN1C(=O)C2SSSSC1C(=O)N2CC(=O)O` (centres unmarked) [compound 3], the “Concentration at onset of inhibition of pseudo-lentivector entry” value worked out at 50 µM.
